According to BindingDB's records for doi:10.1016/j.bmcl.2009.09.081 (Lexicon Pharmaceuticals, 2009):
pEC50: −log10 of the molar value.

Test: Inhibition of deoxycytidine kinase-mediated arabinoside C-induced cytotoxicity

Structure (SMILES) | pEC50
NC(=O)c1ccc(-c2cccc(S(=O)(=O)N[C@H]3CC[C@H](n4cc(F)c(N)nc4=O)C3)c2)cc1 [3'-(N-((1S,3S)-3-(4-amino-5-fluoro-2-oxopyrimidin-1(2H)-yl)cyclopentyl)sulfamoyl)biphenyl-4-carboxamide] | 5.23
Nc1nc(=O)n([C@H]2CC[C@H](NS(=O)(=O)c3cccc(-c4ccc(Cl)cc4Cl)c3)C2)cc1F [N-((1S,3S)-3-(4-amino-5-fluoro-2-oxopyrimidin-1(2H)-yl)cyclopentyl)-2',4'-dichlorobiphenyl-3-sulfonamide] | 6.28
Nc1nc(=O)n([C@H]2CC[C@H](NS(=O)(=O)c3cccc(-c4ccccc4Cl)c3)C2)cc1F [N-((1S,3S)-3-(4-amino-5-fluoro-2-oxopyrimidin-1(2H)-yl)cyclopentyl)-2'-chlorobiphenyl-3-sulfonamide] | 6.37
Nc1nc(=O)n([C@H]2CC[C@H](NC(=O)c3cccc(-c4cccc(Cl)c4)c3)C2)cc1F [N-((1S,3S)-3-(4-amino-5-fluoro-2-oxopyrimidin-1(2H)-yl)cyclopentyl)-3'-chlorobiphenyl-3-carboxamide] | 6.74
Nc1nc(=O)n([C@H]2CC[C@H](NS(=O)(=O)c3cccc(-c4cccc(Cl)c4)c3)C2)cc1F [N-((1S,3S)-3-(4-amino-5-fluoro-2-oxopyrimidin-1(2H)-yl)cyclopentyl)-3'-chlorobiphenyl-3-sulfonamide] | 6.44
Nc1nc(=O)n([C@H]2CC[C@H](NS(=O)(=O)c3cccc(Br)c3)C2)cc1F [N-((1S,3S)-3-(4-amino-5-fluoro-2-oxopyrimidin-1(2H)-yl)cyclopentyl)-3-bromobenzenesulfonamide] | 5.55
CS(=O)(=O)c1ccc(-c2cccc(S(=O)(=O)N[C@H]3CC[C@H](n4cc(F)c(N)nc4=O)C3)c2)cc1 [N-((1S,3S)-3-(4-amino-5-fluoro-2-oxopyrimidin-1(2H)-yl)cyclopentyl)-4'-(methylsulfonyl)biphenyl-3-sulfonamide] | 5.74
Cc1cc(Cl)ccc1-c1cccc(C(=O)N[C@H]2CC[C@H](n3cc(F)c(N)nc3=O)C2)c1 [N-((1S,3S)-3-(4-amino-5-fluoro-2-oxopyrimidin-1(2H)-yl)cyclopentyl)-4'-chloro-2'-methylbiphenyl-3-carboxamide] | 6.77
Cc1cc(Cl)ccc1-c1cccc(S(=O)(=O)N[C@H]2CC[C@H](n3cc(F)c(N)nc3=O)C2)c1 [N-((1S,3S)-3-(4-amino-5-fluoro-2-oxopyrimidin-1(2H)-yl)cyclopentyl)-4'-chloro-2'-methylbiphenyl-3-sulfonamide] | 6.54
Nc1nc(=O)n([C@H]2CC[C@H](NC(=O)c3cccc(-c4ccc(Cl)cc4)c3)C2)cc1F [N-((1S,3S)-3-(4-amino-5-fluoro-2-oxopyrimidin-1(2H)-yl)cyclopentyl)-4'-chlorobiphenyl-3-carboxamide] | 6.57
Nc1nc(=O)n([C@H]2CC[C@H](NS(=O)(=O)c3cccc(-c4ccc(Cl)cc4)c3)C2)cc1F [N-((1S,3S)-3-(4-amino-5-fluoro-2-oxopyrimidin-1(2H)-yl)cyclopentyl)-4'-chlorobiphenyl-3-sulfonamide] | 6.62
N#Cc1ccc(-c2cccc(S(=O)(=O)N[C@H]3CC[C@H](n4cc(F)c(N)nc4=O)C3)c2)cc1 [N-((1S,3S)-3-(4-amino-5-fluoro-2-oxopyrimidin-1(2H)-yl)cyclopentyl)-4'-cyanobiphenyl-3-sulfonamide] | 6.41
COc1ccc(-c2cccc(C(=O)N[C@H]3CC[C@H](n4cc(F)c(N)nc4=O)C3)c2)cc1 [N-((1S,3S)-3-(4-amino-5-fluoro-2-oxopyrimidin-1(2H)-yl)cyclopentyl)-4'-methoxybiphenyl-3-carboxamide] | 7.00
COc1ccc(-c2cccc(S(=O)(=O)N[C@H]3CC[C@H](n4cc(F)c(N)nc4=O)C3)c2)cc1 [N-((1S,3S)-3-(4-amino-5-fluoro-2-oxopyrimidin-1(2H)-yl)cyclopentyl)-4'-methoxybiphenyl-3-sulfonamide] | 6.52
Cc1ccc(-c2cccc(S(=O)(=O)N[C@H]3CC[C@H](n4cc(F)c(N)nc4=O)C3)c2)cc1 [N-((1S,3S)-3-(4-amino-5-fluoro-2-oxopyrimidin-1(2H)-yl)cyclopentyl)-4'-methylbiphenyl-3-sulfonamide] | 6.30
Nc1nc(=O)n([C@H]2CC[C@H](NS(=O)(=O)c3ccc(Br)cc3)C2)cc1F [N-((1S,3S)-3-(4-amino-5-fluoro-2-oxopyrimidin-1(2H)-yl)cyclopentyl)-4-bromobenzenesulfonamide] | 4.96
Nc1nc(=O)n([C@H]2CC[C@H](NS(=O)(=O)c3ccc([N+](=O)[O-])cc3)C2)cc1F [N-((1S,3S)-3-(4-amino-5-fluoro-2-oxopyrimidin-1(2H)-yl)cyclopentyl)-4-nitrobenzenesulfonamide] | 4.80
Nc1nc(=O)n([C@H]2CC[C@H](NS(=O)(=O)c3ccccc3)C2)cc1F [N-((1S,3S)-3-(4-amino-5-fluoro-2-oxopyrimidin-1(2H)-yl)cyclopentyl)benzenesulfonamide] | 4.77
Nc1nc(=O)n([C@H]2CC[C@H](NC(=O)c3cccc(-c4ccccc4)c3)C2)cc1F [N-((1S,3S)-3-(4-amino-5-fluoro-2-oxopyrimidin-1(2H)-yl)cyclopentyl)biphenyl-3-carboxamide] | 6.04
Nc1nc(=O)n([C@H]2CC[C@H](NS(=O)(=O)c3cccc(-c4ccccc4)c3)C2)cc1F [N-((1S,3S)-3-(4-amino-5-fluoro-2-oxopyrimidin-1(2H)-yl)cyclopentyl)biphenyl-3-sulfonamide] | 6.22
Nc1nc(=O)n([C@H]2CC[C@H](NS(=O)(=O)c3ccc(-c4ccccc4)cc3)C2)cc1F [N-((1S,3S)-3-(4-amino-5-fluoro-2-oxopyrimidin-1(2H)-yl)cyclopentyl)biphenyl-4-sulfonamide] | 5.26
